Target: human BTK (Homo sapiens (Human), UniProt Q06187)
Assay: BTK inhibition: BTK-mediated phosphorylation of FAM-labeled substrate 5-FAM-[…]-NH2 (Caliper LC-3000)
Format: biochemical
Conditions: residues 382 to 659 of human BTK; 60 minutes at room temperature; pIC50 = -log(IC50), IC50 molar
From the text: The activity of compounds as BTK inhibitors may be determined by a variety of methods, including in vitro and in vivo methods.
This construct engineers an in-frame translational fusion with the Glutathione-S-Transferase (GST) protein for use in affinity purification. The fusion protein derived from this construct contains a protease recognition sequence to liberate the BTK from the GST affinity tag. High-titer baculoviral stocks, generated using the Bac-to-Bac® system (Invitrogen), are used to express the recombinant protein in Spodoptera frugiperda Sf9 cells in 10 L Wave bags. Recombinant proteins are isolated from cellular extracts by passage over Glutathione Sepharose 4B (GE Healthcare) and the BTK moiety is released from the GST affinity tag by treatment with PreScission protease. The BTK recombinant protein is further purified by size exclusion chromatography (HiLoad 16/60 Superdex 200, GE Healthcare) in a buffer containing 20 mM Hepes (pH 7.4), 50 mM NaCl, 10 mM MgCl2, 0.25 mM TCEP and 0.1 mM EDTA. The purity of the fractions is assessed by SDS PAGE and the peak protein fractions are pooled and concentrated using Amicon Ultra-15 Centrifugal Filter Devices (Millipore).
The inhibitory properties of compounds relative to BTK is determined using a black 384-well-plate format in a buffer which contains 50 mM Hepes, 10 mM NaCl, 10 mM MgCl2, 0.2 mM EDTA, 0.01% Brij35®, 1 mM DTT, and 0.1 mg/mL BSA at pH 7.3. The test compound is prepared in DMSO using 2-fold serial dilutions for 11 data points, which are added to the buffer so that each dilution contains 3% DMSO. […] The reaction mixtures are incubated at room temperature for 60 minutes and then quenched by adding 25 μL of 50 mM EDTA. To quantify the fluorescent-labeled substrate and product following reaction, the test plate is loaded on a Caliper LC-3000, which measures percent of conversion by microfluidic-based separation.
The compounds were tested in accordance with the assay described on page 42 of the specification.

Sequence of human BTK (Q06187 382-659): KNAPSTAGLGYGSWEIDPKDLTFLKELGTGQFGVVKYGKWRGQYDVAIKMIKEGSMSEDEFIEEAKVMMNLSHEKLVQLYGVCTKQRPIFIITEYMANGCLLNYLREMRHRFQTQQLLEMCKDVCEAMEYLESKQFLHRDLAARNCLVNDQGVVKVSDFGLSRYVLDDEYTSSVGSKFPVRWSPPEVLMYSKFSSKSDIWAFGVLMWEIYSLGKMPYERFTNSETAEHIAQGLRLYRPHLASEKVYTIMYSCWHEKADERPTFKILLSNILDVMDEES

Row | BTK Inhibition (pIC50) | Structure (SMILES)
1 | >8.9 | C=CC(=O)N1CC[C@H](Oc2nc(-c3n[nH]c(=O)[nH]3)cc3cccc(Cl)c23)C1 [Example 27, (S)-3-(1-((1-acryloylpyrrolidin-3-yl)oxy)-8-chloroisoquinolin-3-yl) -1H-1,2,4-triazol-5(4H)-one]
2 | >8.5 | C=CC(=O)N1CC[C@H](Oc2nc(-c3n[nH]c(=O)[nH]3)cc3cccnc23)C1 [Example 16, (S)-3-(8-((1-acryloylpyrrolidin-3-yl)oxy)-1,7-naphthyridin-6-yl)-1H-1,2,4-triazol-5(4H)-one]

Continued, molecule first:

Row | Structure (SMILES) | BTK Inhibition (pIC50)
3 | C=CC(=O)N1CC[C@H](Nc2nc(-c3n[nH]c(=O)[nH]3)cc3cccc(Cl)c23)C1 [Example 28, (S)-3-(1-((1-acryloylpyrrolidin-3-yl)amino)-8-chloroisoquinolin-3-yl)-1H-1,2,4-triazol-5(4H)-one] | >8.6
4 | C=CC(=O)N1CC[C@H](Oc2nc(-c3n[nH]c(=O)[nH]3)cc3ccc(F)cc23)C1 [Example 18, (S)-3-(1-((1-acryloylpyrrolidin-3-yl)oxy)-7-fluoroisoquinolin-3-yl)-1H-1,2,4-triazol-5(4H)-one] | >8.2
5 | C=CC(=O)N1CC[C@H](Nc2nc(-c3n[nH]c(=O)[nH]3)cc3cccnc23)C1 [Example 17, (S)-3-(8-((1-acryloylpyrrolidin-3-yl)amino)-1,7-naphthyridin-6-yl)-1H-1,2,4-triazol-5(4H)-one] | >8.6
6 | C=CC(=O)N1CC[C@H](Oc2cc(C)cc(-c3n[nH]c(=O)[nH]3)n2)C1 [Example 30, (S)-3-(6-((1-acryloylpyrrolidin-3-yl)oxy)-4-methylpyridin-2-yl)-1H-1,2,4-triazol-5(4H)-one] | >8.6
7 | C=C(C)C(=O)N1CC[C@H](Nc2nc(-c3n[nH]c(=O)[nH]3)cc3ccccc23)C1 [Example 10, (S)-3-(1-((1-methacryloylpyrrolidin-3-yl)amino)isoquinolin-3-yl)-1H-1,2,4-triazol-5(4H)-one] | 7.5

From US9801872B2, “Pyridinyl and fused pyridinyl triazolone derivatives” (Takeda Pharmaceutical Company Limited, priority 2013, dated 2017)
